Data published in the NIST ThermoML archive (doi:10.1021/je900596d).
Numbers after ± are expanded uncertainties.

Conditions: 348.12 K, Fluid (supercritical or subcritical phases), Vibrating tube method

## FC(F)=C(F)C(F)(F)F [hexafluoropropene]
29.5 kPa
  mass density: 1.44 ± 0.03 kg/m3
31.2 kPa
  mass density: 1.52 ± 0.03 kg/m3
34.9 kPa
  mass density: 1.74 ± 0.03 kg/m3
36.7 kPa
  mass density: 1.87 ± 0.03 kg/m3
38.3 kPa
  mass density: 1.89 ± 0.03 kg/m3
41 kPa
  mass density: 2.08 ± 0.03 kg/m3
43.9 kPa
  mass density: 2.27 ± 0.03 kg/m3
46.5 kPa
  mass density: 2.39 ± 0.03 kg/m3
49.3 kPa
  mass density: 2.49 ± 0.03 kg/m3
55.8 kPa
  mass density: 2.86 ± 0.03 kg/m3
59.3 kPa
  mass density: 3.01 ± 0.03 kg/m3
62.6 kPa
  mass density: 3.24 ± 0.03 kg/m3
65.9 kPa
  mass density: 3.31 ± 0.03 kg/m3
72.5 kPa
  mass density: 3.77 ± 0.03 kg/m3
75.7 kPa
  mass density: 3.95 ± 0.03 kg/m3
78.9 kPa
  mass density: 4.06 ± 0.03 kg/m3
82.3 kPa
  mass density: 4.24 ± 0.03 kg/m3
89 kPa
  mass density: 4.57 ± 0.03 kg/m3
92.4 kPa
  mass density: 4.78 ± 0.03 kg/m3
95.9 kPa
  mass density: 4.89 ± 0.03 kg/m3
99.3 kPa
  mass density: 5.1 ± 0.03 kg/m3
102.8 kPa
  mass density: 5.38 ± 0.03 kg/m3
108.9 kPa
  mass density: 5.66 ± 0.03 kg/m3
121.1 kPa
  mass density: 6.31 ± 0.03 kg/m3
127.3 kPa
  mass density: 6.62 ± 0.03 kg/m3
139.4 kPa
  mass density: 7.29 ± 0.03 kg/m3
145.5 kPa
  mass density: 7.59 ± 0.03 kg/m3
151.6 kPa
  mass density: 7.92 ± 0.03 kg/m3
157.7 kPa
  mass density: 8.3 ± 0.04 kg/m3
168.6 kPa
  mass density: 8.79 ± 0.04 kg/m3
172.3 kPa
  mass density: 9.11 ± 0.04 kg/m3
176 kPa
  mass density: 9.23 ± 0.04 kg/m3
186.9 kPa
  mass density: 9.89 ± 0.04 kg/m3
190.6 kPa
  mass density: 10.07 ± 0.04 kg/m3
194.2 kPa
  mass density: 10.28 ± 0.04 kg/m3
201.5 kPa
  mass density: 10.61 ± 0.04 kg/m3
208.9 kPa
  mass density: 10.99 ± 0.04 kg/m3
216.2 kPa
  mass density: 11.48 ± 0.04 kg/m3
230.6 kPa
  mass density: 12.26 ± 0.04 kg/m3
237.9 kPa
  mass density: 12.55 ± 0.04 kg/m3
245.2 kPa
  mass density: 13.05 ± 0.04 kg/m3
252.4 kPa
  mass density: 13.5 ± 0.04 kg/m3
266.8 kPa
  mass density: 14.29 ± 0.04 kg/m3
274 kPa
  mass density: 14.64 ± 0.04 kg/m3
281 kPa
  mass density: 15 ± 0.04 kg/m3
295.2 kPa
  mass density: 15.84 ± 0.04 kg/m3
303.3 kPa
  mass density: 16.23 ± 0.04 kg/m3
310.5 kPa
  mass density: 16.69 ± 0.04 kg/m3
317.5 kPa
  mass density: 17.06 ± 0.04 kg/m3
324.5 kPa
  mass density: 17.51 ± 0.04 kg/m3
331.5 kPa
  mass density: 17.9 ± 0.04 kg/m3
338.4 kPa
  mass density: 18.25 ± 0.04 kg/m3
352.2 kPa
  mass density: 19.05 ± 0.04 kg/m3
359.1 kPa
  mass density: 19.45 ± 0.04 kg/m3
366 kPa
  mass density: 19.85 ± 0.04 kg/m3
379.7 kPa
  mass density: 20.59 ± 0.04 kg/m3
386.5 kPa
  mass density: 20.98 ± 0.04 kg/m3
393.2 kPa
  mass density: 21.4 ± 0.04 kg/m3
399.9 kPa
  mass density: 21.73 ± 0.04 kg/m3
413.4 kPa
  mass density: 22.49 ± 0.05 kg/m3
420.1 kPa
  mass density: 22.92 ± 0.05 kg/m3
426.9 kPa
  mass density: 23.28 ± 0.05 kg/m3
433.5 kPa
  mass density: 23.69 ± 0.05 kg/m3
443.2 kPa
  mass density: 24.38 ± 0.05 kg/m3
470.9 kPa
  mass density: 25.92 ± 0.05 kg/m3
484.7 kPa
  mass density: 26.77 ± 0.05 kg/m3
498.3 kPa
  mass density: 27.51 ± 0.05 kg/m3
515 kPa
  mass density: 28.53 ± 0.05 kg/m3
528 kPa
  mass density: 29.29 ± 0.05 kg/m3
541 kPa
  mass density: 30.15 ± 0.05 kg/m3
566.4 kPa
  mass density: 31.68 ± 0.06 kg/m3
579.2 kPa
  mass density: 32.43 ± 0.06 kg/m3
591.2 kPa
  mass density: 33.18 ± 0.06 kg/m3
603.3 kPa
  mass density: 33.86 ± 0.06 kg/m3
638.4 kPa
  mass density: 36.05 ± 0.06 kg/m3
655.4 kPa
  mass density: 37.08 ± 0.06 kg/m3
672.1 kPa
  mass density: 38.15 ± 0.06 kg/m3
688.5 kPa
  mass density: 39.21 ± 0.06 kg/m3
704.5 kPa
  mass density: 40.22 ± 0.06 kg/m3
720.3 kPa
  mass density: 41.24 ± 0.07 kg/m3
735.8 kPa
  mass density: 42.16 ± 0.07 kg/m3
765.5 kPa
  mass density: 44.05 ± 0.07 kg/m3
794.2 kPa
  mass density: 45.95 ± 0.07 kg/m3
808 kPa
  mass density: 46.91 ± 0.07 kg/m3
827.5 kPa
  mass density: 48.2 ± 0.07 kg/m3
844.7 kPa
  mass density: 49.34 ± 0.08 kg/m3
863.4 kPa
  mass density: 50.7 ± 0.08 kg/m3
890.4 kPa
  mass density: 52.34 ± 0.08 kg/m3
902.7 kPa
  mass density: 53.25 ± 0.08 kg/m3
915.6 kPa
  mass density: 54.2 ± 0.08 kg/m3
928.7 kPa
  mass density: 55.05 ± 0.08 kg/m3
945.4 kPa
  mass density: 56.14 ± 0.08 kg/m3
972.6 kPa
  mass density: 58.01 ± 0.09 kg/m3
985.8 kPa
  mass density: 58.92 ± 0.09 kg/m3
1005.6 kPa
  mass density: 60.36 ± 0.09 kg/m3
1023.4 kPa
  mass density: 61.55 ± 0.09 kg/m3
1040.8 kPa
  mass density: 62.84 ± 0.09 kg/m3
1057.8 kPa
  mass density: 64.05 ± 0.09 kg/m3
1074 kPa
  mass density: 65.2 ± 0.1 kg/m3
1089.6 kPa
  mass density: 66.39 ± 0.1 kg/m3
1108 kPa
  mass density: 67.73 ± 0.1 kg/m3
1138.6 kPa
  mass density: 69.96 ± 0.1 kg/m3
1150.7 kPa
  mass density: 70.83 ± 0.1 kg/m3
1168.1 kPa
  mass density: 72.19 ± 0.11 kg/m3
1184.8 kPa
  mass density: 73.38 ± 0.11 kg/m3
1201.8 kPa
  mass density: 74.83 ± 0.11 kg/m3
1219.5 kPa
  mass density: 76.17 ± 0.11 kg/m3
1231.5 kPa
  mass density: 77.05 ± 0.11 kg/m3
1248.8 kPa
  mass density: 78.38 ± 0.11 kg/m3
1265.1 kPa
  mass density: 79.72 ± 0.12 kg/m3
1280.3 kPa
  mass density: 80.92 ± 0.12 kg/m3
1297.6 kPa
  mass density: 82.21 ± 0.12 kg/m3
1313.7 kPa
  mass density: 83.6 ± 0.12 kg/m3
1330.4 kPa
  mass density: 84.96 ± 0.12 kg/m3
1346.3 kPa
  mass density: 86.2 ± 0.13 kg/m3
1362.7 kPa
  mass density: 87.68 ± 0.13 kg/m3
1378.7 kPa
  mass density: 88.93 ± 0.13 kg/m3
1395.3 kPa
  mass density: 90.32 ± 0.13 kg/m3
1410.5 kPa
  mass density: 91.58 ± 0.13 kg/m3
1426.3 kPa
  mass density: 92.94 ± 0.14 kg/m3
1442.6 kPa
  mass density: 94.4 ± 0.14 kg/m3
1460.3 kPa
  mass density: 95.93 ± 0.14 kg/m3
1473.3 kPa
  mass density: 97.06 ± 0.15 kg/m3
1487.3 kPa
  mass density: 98.32 ± 0.14 kg/m3
1511.6 kPa
  mass density: 100.57 ± 0.15 kg/m3
1540.1 kPa
  mass density: 103.11 ± 0.15 kg/m3
1566 kPa
  mass density: 105.5 ± 0.16 kg/m3
1592.2 kPa
  mass density: 107.78 ± 0.16 kg/m3
1616.1 kPa
  mass density: 110.1 ± 0.17 kg/m3
1639.3 kPa
  mass density: 112.32 ± 0.17 kg/m3
1683.8 kPa
  mass density: 116.62 ± 0.18 kg/m3
1708.4 kPa
  mass density: 119.29 ± 0.18 kg/m3
1732.6 kPa
  mass density: 121.75 ± 0.19 kg/m3
1756.5 kPa
  mass density: 124.29 ± 0.19 kg/m3
